Like-named read-outs stand apart in the source and are kept apart here.
How the values were obtained:
IRAK4 enzyme = IRAK4 enzyme (Homo sapiens (Human), UniProt Q9NWZ3); assay: IRAK4 Biochemical Assay (TR-FRET, STK1 KinEASE)
Description: IRAK4 enzyme (Carna Biosciences, Chuo-ku, Kobe, Japan) activity was measured by detecting phosphorylated peptide substrate formation using an antibody against the phosphorylated peptide substrate. This is a time-resolved fluorescence resonance energy transfer (TR-FRET) immunoassay, based on the STK1 KinEASE Assay (Cisbio, Bedford, Mass.). The assay was designed as a simple two-step, endpoint assay (a 5 μl enzyme reaction followed by 5 μl stop and detect Solution) performed in ProxiPlate-384 Plus plates (Perkin Elmer, Waltham, Mass.). […] Compounds diluted in DMSO were spotted into 384 well plates using a Labcyte® Echo 550 Liquid Handling System prior to addition of IRAK4 enzyme and peptide substrate. Reaction solutions were delivered using a Multi-Flo (Bio-Tek Instruments). The enzyme and peptide solution was incubated with compound for 15 minutes at room temp before the reaction was initiated by the addition of ATP. The standard 5 μl reaction mixture contained 500 μM ATP, 2 μM peptide (STK1 Peptide), 0.75 nM of IRAK4 in reaction buffer (50 mM HEPES, pH 7.0, 0.02% NaN3, 0.01% BSA, 0.1 mM Orthovanadate, 5 mM MgCl2, 0.025% NP-40, 1 mM DTT). After 120 min of incubation at room temperature, 5 μl of Stop and Detect Solution (1:100 Cryptate labeled anti-phosphorylated peptide antibody solution and 125 nM Tracer in a 50 mM HEPES pH 7.0 detection buffer containing sufficient EDTA) was added. The plate was then further incubated for 60 minutes at room temperature and read on Envision 2103 Multilabeled reader (PerkinElmer) with excitation/emission/FRET emission at 340 nm/615 nm/665 nm, respectively. Fluorescence intensities at 615 nm and 665 nm emission wavelengths were expressed as a ratio (665 nm/615 nm). Percentage of inhibition was calculated as below: % Inhibition=100×(RatioSample−Ratio0% Inhibition)/(Ratio100% Inhibition−Ratio0% Inhibition)
The 0% inhibition value comes from control wells lacking inhibitor.

TNFα = assay: IRAK4 Monocyte TNFα Cell Based Assay; set-up: species or system human; details: Homo sapiens, Monocyte, read-out: EC50MONO TNF HTRF
Description: IRAK4 Monocyte TNFα Cell Based Assay Procedure:
The cell suspension was then plated at a density of 5,000 cells/well onto black 384 well Greiner clear bottom plates. Plates were pre-spotted with test compounds and serially diluted in DMSO where 40 nL/well were delivered using the Echo 550 acoustic liquid dispenser (Labcyte®) for a final DMSO concentration of 0.1%. Plated cells were treated with compound for 1 hour at 37° C. Cells were then stimulated with 50 pg/ml of LPS (Sigma) excluding outside columns of plate used for unstimulated cell control wells. Cells were incubated for an additional 4 hours at 37° C. Cells were then spun out of the media and 5μl of sample were taken and analyzed for total TNFα content using the TR-FRET Human TNFα detection system (CisBio). This system utilizes two labeled antibodies (cryptate and XL665) that bind to two different epitopes of the TNFα molecule and produce FRET signal proportional to the concentration of TNFα in the sample. Detection antibodies are mixed 50:50 and 5 μL were dispensed into each well. Plates were covered with clear seals and incubated at room temp overnight. […] Percent of control was calculated as follows: % Control=100×(RatioSample−Ratio0% Stimulation)/(Ratio100% Stimulation−Ratio0% Stimulation) where unstimulated cells (0% stimulation) were the negative control and stimulated cells (100% stimulation) were used as the positive control.

[1] = human monocytes, second part of Table 2 (compounds 33-343), unit inferred

IRAK4 enzyme, sequence (Q9NWZ3 whole entry): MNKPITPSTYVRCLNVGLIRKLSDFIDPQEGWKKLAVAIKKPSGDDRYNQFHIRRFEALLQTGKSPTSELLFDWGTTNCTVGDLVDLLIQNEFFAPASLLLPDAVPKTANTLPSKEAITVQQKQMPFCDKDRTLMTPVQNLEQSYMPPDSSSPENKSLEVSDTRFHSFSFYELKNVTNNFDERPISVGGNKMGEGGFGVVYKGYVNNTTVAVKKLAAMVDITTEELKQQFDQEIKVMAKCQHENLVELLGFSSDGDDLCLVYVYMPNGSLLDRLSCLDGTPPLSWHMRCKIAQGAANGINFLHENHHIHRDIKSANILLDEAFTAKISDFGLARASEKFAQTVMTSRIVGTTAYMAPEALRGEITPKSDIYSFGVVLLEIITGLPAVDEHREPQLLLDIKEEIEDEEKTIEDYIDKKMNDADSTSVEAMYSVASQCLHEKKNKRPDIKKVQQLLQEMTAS

Row | SMILES | IC50 (IRAK4 enzyme) | EC50 (TNFα; [1]) | EC50 (TNFα) | IC50 (IRAK4 enzyme; second part of Table 2 (compounds 33-343), unit inferred, read-out: IC50 IRAK4-HTBS)
1 | CC(=O)N1CCN(c2nnc(-c3cnc(-c4ccc5cc(C#N)cnn45)cc3NC(C)C)s2)CC1 [Compound 232, 7-(5-(5-(4-acetylpiperazin-1-yl)-1,3,4-thiadiazol-2-yl)-4-(isopropylamino)pyridin-2-yl)pyrrolo[1,2-b]pyridazine-3-carbonitrile] | 0.62 nM | 7.4 nM |  | 
2 | CC(=O)N1C2CC1CN(c1nnc(-c3cnc(-c4ccc5cc(C#N)cnn45)cc3NC(C)C)s1)C2 [Compound 258, 7-(5-(5-(6-acetyl-3,6-diazabicyclo[3.1.1]heptan-3-yl)-1,3,4-thiadiazol-2-yl)-4-(isopropylamino)pyridin-2-yl)pyrrolo[1,2-b]pyridazine-3-carbonitrile] | 1.26 nM |  | 5.8 nM | 
3 | CC(=O)N1CC2CCC(C1)N2c1nnc(-c2cnc(-c3ccc4cc(C#N)cnn34)cc2NC(C)C)s1 [Compound 260, 7-(5-(5-(3-acetyl-3,8-diazabicyclo[3.2.1]octan-8-yl)-1,3,4-thiadiazol-2-yl)-4-(isopropylamino)pyridin-2-yl)pyrrolo[1,2-b]pyridazine-3-carbonitrile] | 2.56 nM |  | 15.8 nM | 
4 | CC(=O)N1CC2CC(C1)N2c1nnc(-c2cnc(-c3ccc4cc(C#N)cnn34)cc2NC(C)C)s1 [Compound 261, 7-(5-(5-(3-acetyl-3,6-diazabicyclo[3.1.1]heptan-6-yl)-1,3,4-thiadiazol-2-yl)-4-(isopropylamino)pyridin-2-yl)pyrrolo[1,2-b]pyridazine-3-carbonitrile] | 0.73 nM |  | 18.3 nM | 
5 | CC(=O)N1C2CCC1CN(c1nnc(-c3cnc(-c4ccc5cc(C#N)cnn45)cc3NC3(C)COC3)s1)C2 [Compound 264, 7-(5-(5-(8-acetyl-3,8-diazabicyclo[3.2.1]octan-3-yl)-1,3,4-thiadiazol-2-yl)-4-((3-methyloxetan-3-yl)amino)pyridin-2-yl)pyrrolo[1,2-b]pyridazine-3-carbonitrile] | 0.59 nM |  | 2.7 nM | 
6 | CC(=O)N1C[C@H]2COC[C@@H](C1)N2c1nnc(-c2cnc(-c3ccc4cc(C#N)cnn34)cc2NC(C)C)s1 [Compound 266, 7-(5-(5-((1R,5S)-7-acetyl-3-oxa-7,9-diazabicyclo[3.3.1]nonan-9-yl)-1,3,4-thiadiazol-2-yl)-4-(isopropylamino)pyridin-2-yl)pyrrolo[1,2-b]pyridazine-3-carbonitrile] |  |  | 3.2 nM | 0.49 nM
7 | CC(=O)N1[C@@H]2COC[C@H]1CN(c1nnc(-c3cnc(-c4ccc5cc(C#N)cnn45)cc3NC3CCOCC3)s1)C2 [Compound 269, 7-(5-(5-((1R,5S)-9-acetyl-3-oxa-7,9-diazabicyclo[3.3.1]nonan-7-yl)-1,3,4-thiadiazol-2-yl)-4-((tetrahydro-2H-pyran-4-yl)amino)pyridin-2-yl)pyrrolo[1,2-b]pyridazine-3-carbonitrile] | 0.8 nM |  | 5.8 nM | 
8 | CC(C)Nc1cc(-c2ccc3cc(C#N)cnn23)ncc1-c1nnc(CC#N)s1 [Compound 321, 7-(5-(5-(cyanomethyl)-1,3,4-thiadiazol-2-yl)-4-(isopropylamino)pyridin-2-yl)pyrrolo[1,2-b]pyridazine-3-carbonitrile] | 1.46 nM | 53.5 nM |  | 
9 | CC(C)Nc1cc(-c2ccc3cc(C#N)cnn23)ncc1-c1nnc(C2CCOC2)s1 (centres unmarked) [Compound 322, 7-(4-(isopropylamino)-5-(5-(tetrahydrofuran-3-yl)-1,3,4-thiadiazol-2-yl)pyridin-2-yl)pyrrolo[1,2-b]pyridazine-3-carbonitrile] | 0.31 nM | 419 nM |  | 
10 | CC(=O)N[C@H]1CN(c2nnc(-c3cnc(-c4ccc5cc(C#N)cnn45)cc3NC(C)C)s2)CC12CC2 [Compound 323, (R)-N-(5-(5-(6-(3-cyanopyrrolo[1,2-b]pyridazin-7-yl)-4-(isopropylamino)pyridin-3-yl)-1,3,4-thiadiazol-2-yl)-5-azaspiro[2.4]heptan-7-yl)acetamide] | 0.62 nM | 3.7 nM |  | 
11 | CC(=O)N[C@@H]1CN(c2nnc(-c3cnc(-c4ccc5cc(C#N)cnn45)cc3NC(C)C)s2)CC12CC2 [Compound 324, (S)-N-(5-(5-(6-(3-cyanopyrrolo[1,2-b]pyridazin-7-yl)-4-(isopropylamino)pyridin-3-yl)-1,3,4-thiadiazol-2-yl)-5-azaspiro[2.4]heptan-7-yl)acetamide] | 0.99 nM | 19.1 nM |  | 
12 | CC(C)Nc1cc(-c2ccc3cc(C#N)cnn23)ncc1-c1nnc(-n2cccn2)s1 [Compound 325, 7-(5-(5-(1H-pyrazol-1-yl)-1,3,4-thiadiazol-2-yl)-4-(isopropylamino)pyridin-2-yl)pyrrolo[1,2-b]pyridazine-3-carbonitrile] | 8.07 nM | 1000 nM |  | 
13 | CC(C)Nc1cc(-c2ccc3cc(C#N)cnn23)ncc1-c1nnc(-n2cnc(C3CC3)c2)s1 [Compound 326, 7-(5-(5-(4-cyclopropyl-1H-imidazol-1-yl)-1,3,4-thiadiazol-2-yl)-4-(isopropylamino)pyridin-2-yl)pyrrolo[1,2-b]pyridazine-3-carbonitrile] | 6.01 nM |  |  | 
14 | CC(=O)NC1CN(c2nnc(-c3cnc(-c4ccc5cc(C#N)cnn45)cc3NC(C)C)s2)CC1(F)F (centres unmarked) [Compound 327, N-(1-(5-(6-(3-cyanopyrrolo[1,2-b]pyridazin-7-yl)-4-(isopropylamino)pyridin-3-yl)-1,3,4-thiadiazol-2-yl)-4,4-difluoropyrrolidin-3-yl)acetamide] | 0.37 nM | 10.2 nM |  | 
15 | CC(C)Nc1cc(-c2ccc3cc(C#N)cnn23)ncc1-c1nnc(N2CC(N3CCC(F)(F)C3)C2)s1 [Compound 328, 7-(5-(5-(3-(3,3-difluoropyrrolidin-1-yl)azetidin-1-yl)-1,3,4-thiadiazol-2-yl)-4-(isopropylamino)pyridin-2-yl)pyrrolo[1,2-b]pyridazine-3-carbonitrile] | 1.02 nM | 80.5 nM |  | 
16 | CC(C)Nc1cc(-c2ccc3cc(C#N)cnn23)ncc1-c1nnc(N2CCC[C@H]2CO)s1 [Compound 329, (S)-7-(5-(5-(2-(hydroxymethyl)pyrrolidin-1-yl)-1,3,4-thiadiazol-2-yl)-4-(isopropylamino)pyridin-2-yl)pyrrolo[1,2-b]pyridazine-3-carbonitrile] | 0.84 nM | 54.2 nM |  | 
17 | CC(=O)N[C@@H]1CCN(c2nnc(-c3cnc(-c4ccc5cc(C#N)cnn45)cc3NC(C)C)s2)C1 [Compound 330, (R)-N-(1-(5-(6-(3-cyanopyrrolo[1,2-b]pyridazin-7-yl)-4-(isopropylamino)pyridin-3-yl)-1,3,4-thiadiazol-2-yl)pyrrolidin-3-yl)acetamide] | 1.8 nM | 47.1 nM |  | 
18 | CC(=O)N[C@H]1CCN(c2nnc(-c3cnc(-c4ccc5cc(C#N)cnn45)cc3NC(C)C)s2)C1 [Compound 331, (S)-N-(1-(5-(6-(3-cyanopyrrolo[1,2-b]pyridazin-7-yl)-4-(isopropylamino)pyridin-3-yl)-1,3,4-thiadiazol-2-yl)pyrrolidin-3-yl)acetamide] | 1.21 nM | 81.4 nM |  | 
19 | CC(C)Nc1cc(-c2ccc3cc(C#N)cnn23)ncc1-c1nnc(C2CCC(C#N)CC2)s1 (centres unmarked) [Compound 333, 7-(5-(5-(4-cyanocyclohexyl)-1,3,4-thiadiazol-2-yl)-4-(isopropylamino)pyridin-2-yl)pyrrolo[1,2-b]pyridazine-3-carbonitrile] | 1.99 nM | 1000 nM |  | 
20 | CC(=O)N[C@H]1CCN(c2nnc(-c3cnc(-c4ccc5cc(C#N)cnn45)cc3NC(C)C)s2)C[C@@H]1O [Example 64, N-((3S,4S)-1-(5-(6-(3-cyanopyrrolo[1,2-b]pyridazin-7-yl)-4-(isopropylamino)pyridin-3-yl)-1,3,4-thiadiazol-2-yl)-3-hydroxypiperidin-4-yl)acetamide] | 0.28 nM |  |  | 

Source: patent publication US11702414B2, “Thiadiazole IRAK4 inhibitors” (Gilead Sciences, Inc., priority 2018, dated 2023)
